Series [1] relates to Phenion®FT Skin Models (keratinocytes and fibroblasts).
A short description of series [2]: Solubility in vehicle and precipitation on the skin. Type of series: physicochemical. Particulars: for Top dose limited by solubility in acetone: acetone vehicle; for Doses with precipitation on the tissue surface: visual inspection, at cell harvest.
Series [3] concerns bone marrow, blood, liver, skin. To be noted: cited from earlier work.
The test system of the next series is rats and mice. To be noted: rodent studies; topical for sodium xylene sulfonate; ref [65], [72], [82], [85]; cited from earlier work.

In brackets after ≈: the same amount, converted by molar mass. Structures can show the parent of a compound that is named as a salt. Where two headings read alike, the source gives them in different places.

Consider `O=[N+]([O-])c1ccc(O)cc1` [4-Nitrophenol], for which, in series [1], the “Effect on % tail DNA / DNA migration in standard experiment” value is reported as “statistically significant increase in % tail DNA was observed in keratinocytes only at the two lowest doses” and the “RS Comet assay overall classification” value is reported as “negative”. Also, in the series with Phenion®FT Skin Models (human), the “Dose producing signs of strong cytotoxicity that limited the top dose” value was 48 µg/cm^2 and the “Dose tested without cytotoxicity exceeding the cut-off” value is on record as 32 µg/cm^2.
As a reminder, the solubility is how much of the substance goes into solution per volume. A lower solubility goes with a poorly soluble substance. `c1ccc2c(c1)cc1ccc3cccc4ccc2c1c34` [BaP, benzo[a]pyrene]: the “Dose tested without cytotoxicity exceeding the cut-off” value in the series on Phenion®FT Skin Models (human) is on record as 160 µg/cm^2. This compound had a solubility in series [2] (acetone) of 10000 µg/mL (≈ 39.6 mM). The “Top dose limited by solubility in acetone” value (from here on “Top dose limited”) in series [2] came to 160 µg/cm^2.
For the compound `C1=Cc2cc3cccc4ccc5ccc1c2c5c43` [CPPE, Cyclopenta[c,d]pyrene], in series [1], the “Cell type(s) with increased DNA migration” value is “keratinocytes only”, the “Dependence of the result on APC” value is “detected in the presence of APC only”, the “Effect on % tail DNA / DNA migration in APC experiment” value is “significant increase in % tail DNA was observed in the absence of limiting cytotoxicity at four of the top five doses tested in the keratinocytes” and the “Effect on % tail DNA / DNA migration in standard experiment” value was “DNA migration was not increased in either cell type”. Further, the “RS Comet assay overall classification” value in series [1] is “positive”. In the series with Phenion®FT Skin Models, the “Dose producing signs of strong cytotoxicity that limited the top dose” value is 75 µg/cm^2.
As for `Oc1cccc(O)c1` [Resorcinol, 1,3-Dihydroxybenzene], in series [3], the “In vivo micronucleus test in mice” value was “positive” and the “In vivo micronucleus test in rats” value was “no effects”. Moreover, the “Dose producing signs of strong cytotoxicity that limited the top dose” value in the series on Phenion®FT Skin Models (human) is on record as 250 µg/cm^2.
For `COc1cc([C@@H]2c3cc4c(cc3[C@@H](O[C@@H]3O[C@@H]5CO[C@@H](C)O[C@H]5[C@H](O)[C@H]3O)[C@H]3COC(=O)[C@H]23)OCO4)cc(OC)c1O` [Etoposide], the “Dose producing signs of strong cytotoxicity that limited the top dose” value with Phenion®FT Skin Models (human) is listed as greater than 120 µg/cm^2.
On to `OC[C@@H](O)[C@@H](O)[C@H](O)[C@H](O)CO` [D-Mannitol, D-mannitol], for which, in series [1], the “Effect on % tail DNA / DNA migration in APC experiment” value is recorded as “did not significantly increase DNA migration”, the “Effect on % tail DNA / DNA migration in standard experiment” value is recorded as “no increase in DNA migration was observed at any dose” and the “RS Comet assay overall classification” value is given as “negative”. Further, in series [2], the “Top dose limited” value worked out at 320 µg/cm^2.
For the compound `Cc1ccc(N)cc1N` [2,4-DAT, 2,4-diaminotoluene], in series [1], the “Effect on % tail DNA / DNA migration in standard experiment” value is “did not increase the % tail DNA of either cell type” and the “RS Comet assay overall classification” value was “negative”. For the same compound, in the series on Phenion®FT Skin Models (human), the “Dose producing signs of strong cytotoxicity that limited the top dose” value was 1280 µg/cm^2 and the “Dose(s) exceeding the cytotoxicity limit in main or APC experiments” value (shortened to “Dose(s) exceeding the cytotoxicity limit”) is given as 1200 µg/cm^2.
As to `COc1cc(/C=C/C(=O)CC(=O)/C=C/c2ccc(O)c(OC)c2)ccc1O` [Curcumin], in series [1], the “Effect on % tail DNA / DNA migration in APC experiment” value was “did not increase DNA migration in either experiment”, the “Effect on % tail DNA / DNA migration in standard experiment” value was “marked increase in DNA damage” and the “RS Comet assay overall classification” value was “negative”. Moreover, in the series on Phenion®FT Skin Models (human), the “Dose producing signs of strong cytotoxicity that limited the top dose” value came out at 50 µg/cm^2 and the “Dose(s) exceeding the cytotoxicity limit” value stood at 50 µg/cm^2. Besides, in series [2], the “Doses with precipitation on the tissue surface” value was “precipitation was present at all the tested doses”.
For `Cc1c2ccccc2c(C)c2c1ccc1ccccc12` [DMBA, 7,12-dimethylbenz[a]anthracene], in series [1], the “Dependence of the result on APC” value is given as “detected in the presence of APC only”.
In the case of `Nc1nc[nH]n1` [Amitrole], in series [1], the “Effect on % tail DNA / DNA migration in APC experiment” value is on record as “small but statistically significant increase in DNA migration was observed at several doses”, the “Effect on % tail DNA / DNA migration in standard experiment” value is “no observed cytotoxicity outside the cut-off limits or increases in DNA damage” and the “RS Comet assay overall classification” value is “negative”. In addition, the “Dose tested without cytotoxicity exceeding the cut-off” value in the series with Phenion®FT Skin Models (human) is given as 1600 µg/cm^2.
On to `COS(C)(=O)=O` [MMS, methyl methane sulfonate], for which the “Positive control response in standard experiments” value in series [1] was “clear induction of DNA migration”.
For `CN(C)N=O` [DMNA, dimethylnitrosamine], the “RS Comet assay overall classification” value in series [1] is “negative”.
Regarding `CC1(C)S[C@@H]2[C@H](NC(=O)[C@H](N)c3ccccc3)C(=O)N2[C@H]1C(=O)O` [Ampicillin sodium salt], in series [1], the “Effect on % tail DNA / DNA migration in standard experiment” value is listed as “small but statistically significant increase in DNA migration was seen in fibroblasts only at the high dose” and the “RS Comet assay overall classification” value is given as “negative”.
Consider `Cc1c(N)cccc1N` [2,6-DAT, 2,6-diaminotoluene], for which, in series [1], the “Effect on % tail DNA / DNA migration in standard experiment” value is “did not increase the DNA migration” and the “RS Comet assay overall classification” value was “negative”. Further, in the series on Phenion®FT Skin Models (human), the “Dose producing signs of strong cytotoxicity that limited the top dose” value is 800 µg/cm^2 and the “Dose(s) exceeding the cytotoxicity limit” value was no less than 160 µg/cm^2.
On to `CCCCCl` [N-butyl chloride], for which, in series [1], the “Dose with statistically significant increase in DNA migration, keratinocytes” value is given as 400 µg/cm^2; the “Effect on % tail DNA / DNA migration in APC experiment” value is given as “did not show any significant increases in DNA migration”; the “RS Comet assay overall classification” value is “negative”. Besides, the “Dose tested without cytotoxicity exceeding the cut-off” value in the series on Phenion®FT Skin Models is recorded as 1600 µg/cm^2.
Consider `O=P1(N(CCCl)CCCl)NCCCO1` (stereo not shown) [CP, Cyclophosphamide], for which, in series [1], the “Cell type(s) with increased DNA migration” value was “increased in both cell types”, the “Effect on % tail DNA / DNA migration in standard experiment” value is given as “dose-dependent increase in % tail DNA in both cell types” and the “RS Comet assay overall classification” value is “positive”. In addition, the “Dose producing signs of strong cytotoxicity that limited the top dose” value in the series with Phenion®FT Skin Models (human) was found to be 1200 µg/cm^2.
On to `Cc1cn([C@H]2C[C@H](N=[N+]=[N-])[C@@H](CO)O2)c(=O)[nH]c1=O` [AZT, Azidothymidine], for which, in series [1], the “Cell type(s) with increased DNA migration” value is recorded as “increased in both cell types”; the “Effect on % tail DNA / DNA migration in standard experiment” value is “strong dose-dependent increase in % tail DNA in keratinocytes and fibroblasts”; the “RS Comet assay overall classification” value is “positive”. Also, the “Dose producing signs of strong cytotoxicity that limited the top dose” value in the series on Phenion®FT Skin Models (human) was 700 µg/cm^2.
As for `CCOS(C)(=O)=O` [EMS, Ethyl methanesulfonate], in series [1], the “Cell type(s) with increased DNA migration” value is reported as “increased in both cell types”; the “Effect on % tail DNA / DNA migration in standard experiment” value was “clear and dose-dependent increase in % tail DNA in both cell types”; the “RS Comet assay overall classification” value is reported as “positive”. For the same compound, the “Dose producing signs of strong cytotoxicity that limited the top dose” value with Phenion®FT Skin Models (human) amounted to 200 µg/cm^2.
For the compound `O=C1CCCCC1` [Cyclohexanone], in series [1], the “Dependence of the result on APC” value was “positive or equivocal results in the presence of APC only”.
On to Sodium xylene sulfonate, for which, in series [1], the “Effect on % tail DNA / DNA migration in APC experiment” value is given as “no significant increases in % tail DNA”, the “Effect on % tail DNA / DNA migration in standard experiment” value was “did not induce an increase in % tail DNA in either cell type” and the “RS Comet assay overall classification” value is on record as “negative”. Further, in the series with Phenion®FT Skin Models, the “Dose producing signs of strong cytotoxicity that limited the top dose” value is reported as 512 µg/cm^2 and the “Dose(s) exceeding the cytotoxicity limit” value came to 640 µg/cm^2. The Carcinogenicity result with rats and mice is reported as “negative for carcinogenicity”.
Regarding `NC(=S)N(C1CCCCC1)C1CCCCC1` [N,N-dicyclohexyl thiourea], in series [1], the “Effect on % tail DNA / DNA migration in APC experiment” value is “did not cause any significant increases in % tail DNA”, the “Effect on % tail DNA / DNA migration in standard experiment” value is recorded as “did not induce an increase in % tail DNA in either cell type” and the “RS Comet assay overall classification” value is reported as “negative”. Moreover, in the series with Phenion®FT Skin Models, the “Dose producing signs of strong cytotoxicity that limited the top dose” value worked out at 200 µg/cm^2 and the “Dose(s) exceeding the cytotoxicity limit” value is no less than 160 µg/cm^2. Besides, in the series on rats and mice, the Carcinogenicity result is “not carcinogenic”.
For `CCc1cc(C(N)=S)ccn1` [Ethionamide], in series [1], the “Effect on % tail DNA / DNA migration in APC experiment” value is “no significant increases in % tail DNA or cytotoxicity were observed”, the “Effect on % tail DNA / DNA migration in standard experiment” value was “failed to increase % tail DNA”, the “Expert call of the performing laboratory in the coded phase” value was “equivocal” and the “RS Comet assay overall classification” value was “negative”. Further, in series [1] (human), the “Dose(s) with statistically significant increase in DNA migration, fibroblasts” value is given as 320 µg/cm^2. Also, in the series on Phenion®FT Skin Models (human), the “Dose tested without cytotoxicity exceeding the cut-off” value worked out at 240 µg/cm^2 and the “Dose(s) exceeding the cytotoxicity limit” value is reported as 320 µg/cm^2. Further, in series [2], the “Top dose limited” value was 320 µg/cm^2.
`CC(=O)Nc1ccc2c(c1)Cc1ccccc1-2` [2-AAF, 2-acetylaminofluorene]: in series [1], the “Cell type(s) with increased DNA migration” value is on record as “increased in both cell types”, the “Dependence of the result on APC” value is on record as “detected in the presence of APC only”, the “Effect on % tail DNA / DNA migration in APC experiment” value is “significant increase in DNA migration at all doses tested” and the “Effect on % tail DNA / DNA migration in standard experiment” value was “no increase in DNA migration was observed”. Also, the “RS Comet assay overall classification” value in series [1] is listed as “positive”. In addition, the “Dose(s) with statistically significant increase in % tail DNA, keratinocytes” value in series [1] (human) was 80 µg/cm^2. Also, the “Dose(s) exceeding the cytotoxicity limit” value in the series on Phenion®FT Skin Models (human) was 80 µg/cm^2. For the same compound, in series [2], the “Doses with precipitation on the tissue surface” value is reported as no less than 128 µg/cm^2.
Turning to `CC(C)(C)c1cc(O)ccc1O` [TBHQ, Tert-butylhydroquinone], in series [1], the “Effect on % tail DNA / DNA migration in APC experiment” value was “small but statistically significant increase in DNA migration at the two highest doses in fibroblasts only”, the “Effect on % tail DNA / DNA migration in standard experiment” value was “Moderate increases in % tail DNA were observed in this experiment but only at the two highest doses that both exceeded the cytotoxicity limit”, the “Expert call of the performing laboratory in the coded phase” value is “equivocal” and the “RS Comet assay overall classification” value is recorded as “negative”. Also, the “Dose(s) with statistically significant increase in DNA migration, fibroblasts” value in series [1] (human) is given as 16 µg/cm^2. Also, in the series with Phenion®FT Skin Models (human), the “Dose producing signs of strong cytotoxicity that limited the top dose” value is recorded as 40 µg/cm^2 and the “Dose(s) exceeding the cytotoxicity limit” value stood at 20 µg/cm^2.
With `C[C@@]1(CO)[C@H](O)CC[C@@]2(C)[C@H]1CC[C@H]1C[C@@H]3C[C@@]12CC[C@]3(O)CO` [APC, aphidicolin], the “Effect on background DNA damage (SC + APC vs SC)” value in series [1] is recorded as “no major impact on the background DNA damage”.

The values are drawn from paper PMC8081376 (Mutagenesis, 2020).
